From PubChem BioAssay (NCI)
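Where inhibition never reached the appropriate level, the endpoint shown equals the highest concentration tested. Otherwise, values were interpolated linearly from a five-concentration, 48-hour dose response in 96-well plates. Abbreviation: GI50, concentration required for 50% inhibition of growth. TGI: total growth inhibition.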

Columns and labels:
Assay in all cases: NCI-60 cell line screen, 48 h
[1] = system: 786-0 renal
[2] = system: MDA-N
[3] = system: NCI-H23 lung
[4] = system: NCI-H460 lung
[5] = system: OVCAR-5 ovarian
[6] = system: SNB-19 CNS
[7] = system: U251 CNS
[8] = system: UACC-62 melanoma
[9] = system: SR leukemia

| Compound | TGI [1] [µM] | TGI [2] [µM] | TGI [3] [µM] | TGI [4] [µM] | TGI [5] [µM] | TGI [6] [µM] | TGI [7] [µM] | TGI [8] [µM] | TGI [9] [µM] | GI50 [9] [µM] |
| --- | --- | --- | --- | --- | --- | --- | --- | --- | --- | --- |
| Cc1ccc(S(=O)(=O)Oc2cc(N)c3c(n2)CCC3)cc1 | > 100 | > 100 | > 100 | > 100 | > 100 | > 100 | > 100 | > 100 |  |  |
| COP(=O)(O)/C=C/C(NC(=O)C(Cl)(Cl)Cl)c1ccccc1 (centres undefined) | > 100 | > 100 | > 100 | > 100 | > 100 | > 100 | > 100 | > 100 |  |  |
| CCC1=CCC23C(=O)C=CC(=O)C2(C1)C(=O)c1cccc(OC)c1C3=O (centres undefined) | 24.8 | 35.7 | 46.4 | 62.5 | 31.8 | 53.7 | 61.8 | 37.2 | 41.4 |  |
| N#Cc1nc(-c2cc([N+](=O)[O-])cc([N+](=O)[O-])c2)oc1N | > 10 | > 10 | > 10 | > 10 |  | > 10 |  | > 10 | > 10 |  |
| Cc1cc2c(C)cc(=O)[nH]c2cc1N | > 100 | > 100 | > 100 | > 100 | > 100 | > 100 | > 100 | > 100 | > 100 |  |
| O=C1c2ccccc2CN1c1ccc(O)cc1 | > 100 | > 100 | > 100 | > 100 | > 100 | > 100 | > 100 | > 100 | > 100 |  |
| C=C(Cl)/C(=C\Cl)CCC(Br)C(C)C (centres undefined) | > 100 | > 100 | > 100 | > 100 | > 100 | > 100 | > 100 | > 100 | > 100 |  |
| CN(C)c1nc(=NCc2ccncc2)ss1 | 31.5 | > 31.6 | 38.2 | > 100 | 54.4 | > 100 | 32.1 | > 48.1 | 44.6 | 19 |
| NC(CSCc1ccccc1)C(=O)O (centres undefined) | > 100 | > 100 | > 100 | > 100 | > 100 | > 100 | > 100 | > 100 | > 100 |  |
| COc1cc2c(cc1OC)C1c3ccccc3CCN1CC2 (centres undefined) | > 100 | > 100 | > 100 | > 100 | > 100 | > 100 | > 100 | > 100 | > 100 |  |
| CC(C)=C[C@@H]1C[C@H](n2cc(C)c(=O)[nH]c2=O)ON1CCO | > 100 | > 100 |  | > 100 | > 100 | > 100 | > 100 | > 100 | > 100 |  |
| O=C(O)[C@@H]1C[C@@H](O)CN1C(=O)OCc1ccccc1 | > 100 | > 100 | > 100 | > 100 | > 100 | > 100 | > 100 | > 100 | > 100 |  |
